Reference: ChEMBL document CHEMBL1140183, “Bornyl- and isobornyl-Delta8-tetrahydrocannabinols: a novel class of cannabinergic ligands” (J Med Chem, 2008)

Key:
[1] = target: Cannabinoid receptor 2 (Mus musculus, UniProt P47936); assay: Displacement of [3H]CP-55940 from CB2 receptor in mouse spleen membrane; assay type: cell membranes
[2] = target: Cannabinoid receptor 1 (Rattus norvegicus, UniProt P20272); assay: Displacement of [3H]CP-55940 from CB1 receptor in rat brain synaptosome membrane; assay type: cell membranes
Chain of Cannabinoid receptor 1 (P20272 whole entry): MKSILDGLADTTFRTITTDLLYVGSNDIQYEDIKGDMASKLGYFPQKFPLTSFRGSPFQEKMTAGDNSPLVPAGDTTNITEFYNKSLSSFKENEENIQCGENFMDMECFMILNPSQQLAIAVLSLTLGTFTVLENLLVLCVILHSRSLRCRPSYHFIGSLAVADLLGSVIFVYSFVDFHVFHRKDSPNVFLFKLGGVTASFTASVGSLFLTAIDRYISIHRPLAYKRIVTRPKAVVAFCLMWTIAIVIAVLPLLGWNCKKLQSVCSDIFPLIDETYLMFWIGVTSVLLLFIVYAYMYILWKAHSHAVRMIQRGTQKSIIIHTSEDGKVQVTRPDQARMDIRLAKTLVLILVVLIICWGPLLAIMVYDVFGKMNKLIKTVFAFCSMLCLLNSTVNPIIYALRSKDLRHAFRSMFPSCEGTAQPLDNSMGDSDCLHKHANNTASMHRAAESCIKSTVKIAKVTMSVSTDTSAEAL

Chain of Cannabinoid receptor 2 (P47936 whole entry): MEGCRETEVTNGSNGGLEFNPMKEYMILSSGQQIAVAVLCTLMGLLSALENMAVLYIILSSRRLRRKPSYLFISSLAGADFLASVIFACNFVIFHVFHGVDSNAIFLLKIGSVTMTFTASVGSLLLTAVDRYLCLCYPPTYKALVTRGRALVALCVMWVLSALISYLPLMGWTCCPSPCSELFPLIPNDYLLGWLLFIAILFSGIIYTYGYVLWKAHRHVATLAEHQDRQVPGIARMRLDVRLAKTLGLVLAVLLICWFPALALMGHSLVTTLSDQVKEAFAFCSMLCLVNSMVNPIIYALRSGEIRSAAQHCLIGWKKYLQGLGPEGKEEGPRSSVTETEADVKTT

Row | Structure (SMILES) | Ki [1] | Ki [2]
1 | CC1=CC[C@@H]2[C@@H](C1)c1c(O)cc([C@@H]3C[C@@H]4CC[C@]3(C)C4(C)C)cc1OC2(C)C | 6.1 nM | 60.2 nM
2 | CC1=CC[C@@H]2[C@@H](C1)c1c(ccc(C[C@@H]3C[C@@H]4CC[C@]3(C)C4(C)C)c1O)OC2(C)C | 49.5 nM | 49 nM
3 | CC1=CC[C@@H]2[C@@H](C1)c1c(O)cc([C@H]3C[C@@H]4CC[C@]3(C)C4(C)C)cc1OC2(C)C | 7.4 nM | 8.9 nM
4 | CC1=CC[C@@H]2[C@@H](C1)c1c(ccc(C[C@H]3C[C@@H]4CC[C@]3(C)C4(C)C)c1O)OC2(C)C | 30.5 nM | 32.7 nM
